This is an account of results in ChEMBL document CHEMBL5584232, “Hijacking monopolar spindle 1 (MPS1) for various cancer types by small molecular inhibitors: Deep insights from a decade of research and patents” (Eur J Med Chem, 2024).

Series [1] can be described thus: Clearance in Wistar rat at 1 mg/kg, iv measured after 24 hrs by LC-MS/MS analysis. It is filed as ADME, organism-based. The following applies: in vivo.
A short description of series [2]: Dose normalized AUC in Wistar rat at 1 mg/kg, po measured for 24 hrs by LC-MS/MS analysis. The following applies: in vivo. It is filed as ADME, organism-based.
Series [3] in a line: Clearance in Beagle dog at 0.5 mg/kg, iv measured for 24 hrs by LC-MS/MS analysis. It is filed as ADME, organism-based, Canis lupus familiaris. Conditions: in vivo.
Series [4] in a line: Dose normalized AUC in Beagle dog at 1 mg/kg, po measured for 24 hrs by LC-MS/MS analysis. It is filed as ADME, organism-based, Canis lupus familiaris. Conditions: in vivo.
The target of series [5] is T1, Dual specificity protein kinase TTK (Homo sapiens, UniProt P33981).
T1 sequence (P33981 whole entry): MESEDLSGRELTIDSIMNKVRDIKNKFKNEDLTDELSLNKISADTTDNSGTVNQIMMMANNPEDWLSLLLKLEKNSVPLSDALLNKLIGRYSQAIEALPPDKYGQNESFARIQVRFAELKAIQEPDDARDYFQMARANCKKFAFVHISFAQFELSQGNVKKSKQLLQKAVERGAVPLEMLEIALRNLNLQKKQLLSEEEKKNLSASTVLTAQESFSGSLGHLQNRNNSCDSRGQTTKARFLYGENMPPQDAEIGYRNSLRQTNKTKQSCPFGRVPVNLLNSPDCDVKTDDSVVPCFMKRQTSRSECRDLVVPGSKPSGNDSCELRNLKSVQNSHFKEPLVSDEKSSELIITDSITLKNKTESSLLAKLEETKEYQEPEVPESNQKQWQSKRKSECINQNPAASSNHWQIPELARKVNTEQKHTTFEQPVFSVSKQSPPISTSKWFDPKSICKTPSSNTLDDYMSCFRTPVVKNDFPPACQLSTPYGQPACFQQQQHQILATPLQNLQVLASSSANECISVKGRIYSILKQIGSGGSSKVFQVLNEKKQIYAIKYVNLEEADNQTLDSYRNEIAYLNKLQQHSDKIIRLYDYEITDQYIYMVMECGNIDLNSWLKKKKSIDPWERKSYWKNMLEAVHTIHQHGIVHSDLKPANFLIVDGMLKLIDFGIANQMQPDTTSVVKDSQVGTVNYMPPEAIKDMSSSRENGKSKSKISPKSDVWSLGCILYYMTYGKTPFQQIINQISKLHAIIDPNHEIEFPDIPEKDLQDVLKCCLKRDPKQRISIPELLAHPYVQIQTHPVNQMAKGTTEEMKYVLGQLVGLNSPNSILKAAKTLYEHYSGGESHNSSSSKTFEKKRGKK
Put plainly: Inhibition of MPS1 (unknown origin).

Series [6] deals with Mitogen-activated protein kinase 8 (Homo sapiens, UniProt P45983). Briefly: Inhibition of JNK1 (unknown origin) using ATF2 as substrate after 1 hr by Lanthascreen TR-FRET assay.
Sequence of Mitogen-activated protein kinase 8 (P45983 whole entry): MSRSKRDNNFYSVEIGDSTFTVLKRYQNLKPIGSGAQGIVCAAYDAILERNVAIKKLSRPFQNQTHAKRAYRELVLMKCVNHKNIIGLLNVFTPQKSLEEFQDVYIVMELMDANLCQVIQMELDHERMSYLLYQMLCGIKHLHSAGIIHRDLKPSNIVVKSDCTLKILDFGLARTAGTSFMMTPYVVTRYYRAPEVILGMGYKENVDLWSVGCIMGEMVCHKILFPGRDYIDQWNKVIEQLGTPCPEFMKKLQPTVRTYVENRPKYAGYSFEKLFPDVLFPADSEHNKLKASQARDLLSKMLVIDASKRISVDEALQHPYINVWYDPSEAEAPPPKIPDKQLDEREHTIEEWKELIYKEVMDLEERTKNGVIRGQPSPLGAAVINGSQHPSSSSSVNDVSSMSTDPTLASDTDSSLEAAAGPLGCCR
In the next series the target is T2, Aurora kinase A (Homo sapiens, UniProt O14965).
T2 sequence (O14965 whole entry): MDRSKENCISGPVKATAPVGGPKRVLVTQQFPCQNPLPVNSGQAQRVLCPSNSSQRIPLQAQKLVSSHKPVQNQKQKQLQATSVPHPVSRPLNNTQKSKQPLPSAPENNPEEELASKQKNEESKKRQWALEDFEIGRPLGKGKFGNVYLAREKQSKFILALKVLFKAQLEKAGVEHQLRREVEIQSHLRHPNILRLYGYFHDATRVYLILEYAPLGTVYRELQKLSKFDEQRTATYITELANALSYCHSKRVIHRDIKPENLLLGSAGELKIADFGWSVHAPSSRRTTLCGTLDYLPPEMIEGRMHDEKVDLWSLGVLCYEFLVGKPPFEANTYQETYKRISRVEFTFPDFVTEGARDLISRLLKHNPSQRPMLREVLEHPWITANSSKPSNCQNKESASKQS
Put plainly: Inhibition of AURORA-A (unknown origin).

Series [7] in a line: Metabolic stability in mouse liver microsomes assessed as drug metabolism measured after 30 mins. It is filed as ADME, Microsome. Conditions: read-out: Drug metabolism.
A further series addresses CYP450 (Homo sapiens, UniProt P04798+P05177+P05181+P08684+P10632+P10635+P11509+P11712+P13584+P20813+P20815+P20853+P24462+P24903+P33260+P33261+P51589+P78329+P98187+Q02928+Q08477+Q16678+Q16696+Q5TCH4+Q6VVX0+Q7Z449+Q8TAV3+Q96SQ9+Q9HB55). Put plainly: Inhibition of CYP450 (unknown origin). It is filed as ADME, protein assay.
Series [8] concerns HCT-116. Briefly: Growth inhibition of human HCT-116 cells incubated for 48 hrs by SRB assay. It is filed as functional.
The test system of series [9] is A549. Put plainly: Growth inhibition of human A549 cells incubated for 48 hrs by SRB assay. It is filed as functional.
A further series concerns MDA-MB-468. Put plainly: Growth inhibition of human MDA-MB-468 cells incubated for 48 hrs by SRB assay. It is filed as functional.
The test system of series [10] is HCT-116. Briefly: Antitumor activity against human HCT-116 cells xenografted in athymic nude BALB/c mouse assessed as reduction in tumor growth at 12.5 mg/kg, ip administered every other day and measured every other day for 16 days. It is filed as functional. The following applies: HCT-116, 384 h, time 16 day, read-out: TGI.
Series [11] in a line: Oral bioavailability in rat at 1 mg/kg. It is filed as ADME, organism-based. The following applies: in vivo.
A further series deals with MOLT-4. Put plainly: Antiproliferative activity against human MOLT-4 cells assessed as reduction in cell growth incubated for 72 hrs by MTT assay. It is filed as functional, cell-based. The following applies: MOLT-4, 72 h.
The next series relates to CAL-51. Briefly: Antiproliferative activity against human CAL-51 cells assessed as inhibition of cell growth incubated for 72 hrs by MTT assay. It is filed as functional, cell-based. Conditions: CAL-51, 72 h.
For series [12], the system named is A549. Briefly: Antiproliferative activity against human A549 cells assessed as reduction in cell growth incubated for 48 hrs by MTT assay. It is filed as functional, cell-based. Conditions: A549, 48 h.
The nature of series [13]: Intrinsic clearance in human liver microsomes. It is filed as ADME, Microsome.

For the compound `COc1ccc(Oc2cc(NCCC(F)(F)F)c3ncc(-c4ccc(C(=O)NC5CC5)c(C)c4)n3n2)c(F)c1F` [BAY-1217389], the results for the clearance in [1] and in [3] were 8.67 mL/min/kg and 7.33 mL/min/kg, respectively. In addition, the AUC/dose in series [2] was found to be 2.4 kg·h/L; in series [4], 2.5 kg·h/L.
In the case of `COc1cc(C(=O)N(C)C)ccc1Nc1nc(OC2CCCC2)c2cc[nH]c2n1`, in series [5], the concentration for half-maximal inhibition (IC50) came out at 1 nM.
In series [5], `CN1CCC(c2ccc(Nc3ncc4c(n3)-n3ccc(C(N)=O)c3CC4)cc2)CC1` showed a concentration for half-maximal inhibition (IC50) of 8.7 nM.
Compound `CCOc1ccc2[nH]nc(-c3cccc(NC(C)=O)c3)c2c1` gave a concentration for half-maximal inhibition (IC50) in series [6] of 150 nM.
As to `CN(C)C(=O)c1cc2cnc(Nc3ccc(-c4cnn(C)c4)cc3Cl)cc2[nH]1`, the half-inhibitory concentration (IC50) against Aurora kinase A is > 100000 nM. Also, in series [7], the metabolised at 0.5 h amounted to 20%.
`NS(=O)(=O)c1cccc(-c2n[nH]c3ccc(NC(=O)C(c4ccsc4)N4CCCC4)cc23)c1` (centres undefined): the concentration for half-maximal inhibition (IC50) against CYP450 came to 900 nM. The values for the GI50 in the series on HCT-116 [8], with A549 [9] and in the series with MDA-MB-468 were 100 nM, 100 nM and 70 nM, respectively. For the same compound, the inhibition in vivo at 12.5 mg/kg with HCT-116 [10] was 66%.
In turn, `Cn1cc(-c2cc3[nH]nc(-c4cccc(S(N)(=O)=O)c4)c3cc2OC2CCCCC2)cn1` showed a bioavailability in series [11] of 17%.
In the case of `COc1cc(N2CCN(C)CC2)ccc1Nc1ncc2c(n1)-n1ccc(C(=O)Nc3c(C)cccc3F)c1CC2`, in the series on MOLT-4, the IC50 amounted to 11 nM.
Consider `CNC(=O)c1ccc(Nc2nc(OC3CCCC3)c3c(-c4cc[nH]n4)c[nH]c3n2)c(OC)c1`, for which, in the series on CAL-51, the IC50 came to 400 nM.
For the compound `CCOc1cc2c(-c3cccc(S(N)(=O)=O)c3)n[nH]c2cc1-c1cnn(C)c1`, the half-inhibitory concentration (IC50) in the series with A549 [12] is 386 nM.
Consider `COc1cc(C(=O)NC(C)(C)CO)ccc1Nc1nc(OC2CCCC2)c2c(-c3ccc4nc(C)oc4c3)c[nH]c2n1`, for which the IC50 with CAL-51 came to 100 nM.
Still for that read-out and setting: the value for `COc1cc(C(=O)NCC(C)(C)O)ccc1Nc1nc(OC2CCCC2)c2c(-c3ccc4nc(C)oc4c3)c[nH]c2n1` was 60 nM.
In turn, `CCOc1cc(-c2nncn2C)ccc1Nc1ncc2cc(C)nc(NCC(C)(C)C)c2n1` [BOS-172722] yielded a CLH in series [13] of 8 µL/min/µg.
On to `COC1CCN(C(=O)c2ccc(Nc3cc4[nH]c(C(=O)N(C)C)cc4cn3)c(Cl)c2)CC1`, for which the 50% inhibitory concentration (IC50) at Aurora kinase A was > 100000 nM. Moreover, the metabolised at 0.5 h in series [7] was 23%.
`CCOc1ccc2[nH]nc(-c3ccc(NC(C)=O)cc3)c2c1` came in with a half-inhibitory concentration (IC50) in [6] of 28 nM.
